Reference: ChEMBL document CHEMBL5154823, “Amphiphilic cyclic peptide [W4KR5]-Antibiotics combinations as broad-spectrum antimicrobial agents” (Eur J Med Chem, 2022)
≈ marks a conversion by molar mass, not a printed value. Calls of active or inactive are those of the source. No cut-off for these calls is given here. Where a SMILES comes first, the peptide text is derived from it.

Columns and labels:
[1] = tested on: Staphylococcus aureus; assay: Antibacterial activity against Staphylococcus aureus ATCC BAA -1556 assessed as levofloxacin MIC incubated for 24 hrs by microbroth dilution assay; type: functional
[2] = tested on: Klebsiella pneumoniae; assay: Antibacterial activity against imipenem resistant Klebsiella pneumoniae ATCC BAA 1705 assessed as reduction in microbial growth incubated for 24 hrs by microbroth dilution method; type: functional
[3] = tested on: Pseudomonas aeruginosa; assay: Antibacterial activity against Pseudomonas aeruginosa ATCC 27883 assessed as reduction in microbial growth incubated for 24 hrs by microbroth dilution method; type: functional
[4] = tested on: Klebsiella pneumoniae; assay: Antibacterial activity against Klebsiella pneumoniae ATCC 13883 assessed as reduction in microbial growth incubated for 24 hrs by microbroth dilution method; type: functional
[5] = tested on: Staphylococcus aureus; assay: Synergistic antibacterial activity against Staphylococcus aureus ATCC 29213 assessed as fractional inhibitory concentration index incubated for 24 hrs in presence of meropenem by checkerboard assay; type: functional
[6] = tested on: Escherichia coli; assay: Synergistic antibacterial activity against Escherichia coli ATCC 25922 assessed as fractional inhibitory concentration index incubated for 24 hrs in presence of meropenem by checkerboard assay; type: functional
[7] = tested on: Pseudomonas aeruginosa; assay: Synergistic antibacterial activity against Pseudomonas aeruginosa ATCC 27883 assessed as fractional inhibitory concentration index incubated for 24 hrs in presence of meropenem by checkerboard assay; type: functional
[8] = tested on: Klebsiella pneumoniae; assay: Synergistic antibacterial activity against Klebsiella pneumoniae ATCC 13883 assessed as fractional inhibitory concentration index incubated for 24 hrs in presence of meropenem by checkerboard assay; type: functional
[9] = tested on: Klebsiella pneumoniae; assay: Synergistic antibacterial activity against imipenem resistant Klebsiella pneumoniae ATCC BAA 1705 assessed as fractional inhibitory concentration index incubated for 24 hrs in presence of meropenem; type: functional
[10] = tested on: Staphylococcus aureus; assay: Bactericidal activity against methicillin resistant Staphylococcus aureus ATCC BAA 1556 assessed as reduction in bacterial viability at MIC measured after 4 hrs by Time kill assay; type: functional, organism-based
[11] = tested on: Escherichia coli; assay: Bactericidal activity against Escherichia coli ATCC BAA 2452 assessed as reduction in bacterial growth at MIC measured after 8 hrs by Time kill assay; type: functional, organism-based
[12] = tested on: Pseudomonas aeruginosa; assay: Bactericidal activity against Pseudomonas aeruginosa ATCC BAA 1744 assessed as decrease of bacterial growth at MIC measured after 12 hrs by Time kill assay; type: functional, organism-based
[13] = tested on: Pseudomonas aeruginosa; assay: Bactericidal activity against Pseudomonas aeruginosa ATCC BAA 1744 assessed as reduction in colony formation at MIC measured after 18 hrs by Time kill assay; type: functional, organism-based
[14] = tested on: Klebsiella pneumoniae; assay: Bactericidal activity against Klebsiella pneumoniae ATCC BAA 1705 assessed as decrease of bacterial growth at MIC by Time kill assay; type: functional, organism-based
[15] = tested on: Cell membrane; assay: Induction of membrane disruption in Pseudomonas aeruginosa ATCC BAA 1744 assessed as increase in PI positive cells at 4 times of MIC incubated for 2 hrs by Propidium iodide staining based FACS cytometry analysis relative to control; type: subcellular
[16] = tested on: HepaRG; assay: Cytotoxicity against human HepaRG cells assessed as assessed as reduction in cell viability at 10 ug/ml incubated for 24 hrs by microplate reader analysis; type: toxicity, cell-based; conditions: dose 10 µg/ml
[17] = tested on: Staphylococcus aureus; assay: Synergistic antibacterial activity against methicillin resistant Staphylococcus aureus ATCC BAA -1556 assessed as fractional inhibitory concentration index incubated for 24 hrs in presence of tetracycline by checkerboard assay; type: functional
[18] = tested on: Staphylococcus aureus; assay: Synergistic antibacterial activity against methicillin resistant Staphylococcus aureus ATCC BAA -1556 assessed as fractional inhibitory concentration index incubated for 24 hrs in presence of clindamycin by checkerboard assay; type: functional
[19] = tested on: Staphylococcus aureus; assay: Synergistic antibacterial activity against methicillin resistant Staphylococcus aureus ATCC BAA -1556 assessed as fractional inhibitory concentration index incubated for 24 hrs in presence of daptomycin by checkerboard assay; type: functional
[20] = tested on: Pseudomonas aeruginosa; assay: Synergistic antibacterial activity against Pseudomonas aeruginosa ATCC 27883 assessed as fractional inhibitory concentration index incubated for 24 hrs in presence of levofloxacin by checkerboard assay; type: functional
[21] = tested on: Pseudomonas aeruginosa; assay: Synergistic antibacterial activity against Pseudomonas aeruginosa ATCC 27883 assessed as fractional inhibitory concentration index incubated for 24 hrs in presence of ciprofloxacin by checkerboard assay; type: functional
[22] = tested on: Pseudomonas aeruginosa; assay: Synergistic antibacterial activity against Pseudomonas aeruginosa ATCC 27883 assessed as fractional inhibitory concentration index incubated for 24 hrs in presence of polymyxin B by checkerboard assay; type: functional
[23] = tested on: Klebsiella pneumoniae; assay: Synergistic antibacterial activity against Klebsiella pneumoniae ATCC BAA 1705 assessed as fractional inhibitory concentration index incubated for 24 hrs in presence of tetracycline by checkerboard assay; type: functional
[24] = tested on: Klebsiella pneumoniae; assay: Synergistic antibacterial activity against Klebsiella pneumoniae ATCC BAA 1705 assessed as fractional inhibitory concentration index incubated for 24 hrs in presence of kanamycin by checkerboard assay; type: functional
[25] = tested on: Klebsiella pneumoniae; assay: Synergistic antibacterial activity against Klebsiella pneumoniae ATCC BAA 1705 assessed as fractional inhibitory concentration index incubated for 24 hrs in presence of polymyxin B by checkerboard assay; type: functional
[26] = tested on: Escherichia coli; assay: Synergistic antibacterial activity against Escherichia coli ATCC 25922 assessed as fractional inhibitory concentration index incubated for 24 hrs in presence of tetracycline by checkerboard assay; type: functional
[27] = tested on: Escherichia coli; assay: Synergistic antibacterial activity against Escherichia coli ATCC 25922 assessed as fractional inhibitory concentration index incubated for 24 hrs in presence of ciprofloxacin by checkerboard assay; type: functional
[28] = tested on: Staphylococcus aureus; assay: Antibacterial activity against Staphylococcus aureus ATCC BAA -1556 assessed as tetracycline MIC incubated for 24 hrs by microbroth dilution assay; type: functional
[29] = tested on: Staphylococcus aureus; assay: Antibacterial activity against Staphylococcus aureus ATCC BAA -1556 assessed clindamycin MIC incubated for 24 hrs by microbroth dilution assay; type: functional
[30] = tested on: Staphylococcus aureus; assay: Antibacterial activity against Staphylococcus aureus ATCC BAA -1556 assessed as vancomycin MIC incubated for 24 hrs by microbroth dilution assay; type: functional
[31] = tested on: Pseudomonas aeruginosa; assay: Antibacterial activity against Pseudomonas aeruginosa ATCC 27883 assessed as ciprofloxacin MIC incubated for 24 hrs by microbroth dilution assay; type: functional
[32] = tested on: Pseudomonas aeruginosa; assay: Antibacterial activity against Pseudomonas aeruginosa ATCC 27883 assessed as vancomycin MIC incubated for 24 hrs by microbroth dilution assay; type: functional
[33] = tested on: Escherichia coli; assay: Antibacterial activity against Escherichia coli ATCC 25922 assessed as tetracycline MIC incubated for 24 hrs by microbroth dilution assay; type: functional
[34] = tested on: Escherichia coli; assay: Antibacterial activity against Escherichia coli ATCC 25922 assessed as kanamycin MIC incubated for 24 hrs by microbroth dilution assay; type: functional
[35] = tested on: Escherichia coli; assay: Antibacterial activity against Escherichia coli ATCC 25922 assessed as ciprofloxacin MIC incubated for 24 hrs by microbroth dilution assay; type: functional
[36] = tested on: Escherichia coli; assay: Antibacterial activity against Escherichia coli ATCC 25922 assessed as polymyxin B MIC incubated for 24 hrs by microbroth dilution assay; type: functional
[37] = tested on: Escherichia coli; assay: Antibacterial activity against Escherichia coli ATCC 25922 assessed as vancomycin MIC incubated for 24 hrs by microbroth dilution assay; type: functional
[38] = tested on: Klebsiella pneumoniae; assay: Antibacterial activity against Klebsiella pneumoniae ATCC BAA 1705 assessed as tobramycin MIC incubated for 24 hrs by microbroth dilution assay; type: functional
[39] = tested on: Klebsiella pneumoniae; assay: Antibacterial activity against Klebsiella pneumoniae ATCC BAA 1705 assessed as clindamycin MIC incubated for 24 hrs by microbroth dilution assay; type: functional
[40] = tested on: Klebsiella pneumoniae; assay: Antibacterial activity against Klebsiella pneumoniae ATCC BAA 1705 assessed as ciprofloxacin MIC incubated for 24 hrs by microbroth dilution assay; type: functional
[41] = tested on: Klebsiella pneumoniae; assay: Antibacterial activity against Klebsiella pneumoniae ATCC BAA 1705 assessed as daptomycin MIC incubated for 24 hrs by microbroth dilution assay; type: functional

N=C(N)NCCC[C@@H]1NC(=O)[C@H](CCCNC(=N)N)NC(=O)[C@H](CCCNC(=N)N)NC(=O)[C@H](CCCNC(=N)N)NC(=O)[C@H](Cc2c[nH]c3ccccc23)NC(=O)[C@H](Cc2c[nH]c3ccccc23)NC(=O)[C@H](Cc2c[nH]c3ccccc23)NC(=O)[C@H](Cc2c[nH]c3ccccc23)NC(=O)[C@H](CCCCN)NC(=O)[C@H](CCCNC(=N)N)NC1=O (cyclo(KWWWWRRRRR))
MIC [1]: 1 µg/mL | MIC [2]: 32 µg/mL | MIC [3]: 16 µg/mL | MIC [4]: 16 µg/mL | fractional inhibitory concentration index (FICI) [5]: 0.5 | fractional inhibitory concentration index (FICI) [6]: 1.25 | fractional inhibitory concentration index (FICI) [7]: 0.375 | fractional inhibitory concentration index (FICI) [8]: 0.625 | fractional inhibitory concentration index (FICI) [9]: 0.75 | Activity [10]: Active | Activity [11]: Active | Activity [12]: Active | Activity [13]: Active | Activity [14]: Active | Activity [15]: 66.8% | Activity [16]: Non-Toxic | fractional inhibitory concentration index (FICI) [17]: 0.5 | fractional inhibitory concentration index (FICI) [18]: 0.498 | fractional inhibitory concentration index (FICI) [19]: 0.5 | fractional inhibitory concentration index (FICI) [20]: 0.375 | fractional inhibitory concentration index (FICI) [21]: 0.5 | fractional inhibitory concentration index (FICI) [22]: 0.375 | fractional inhibitory concentration index (FICI) [23]: 0.3125 | fractional inhibitory concentration index (FICI) [24]: 0.375 | fractional inhibitory concentration index (FICI) [25]: 0.313 | fractional inhibitory concentration index (FICI) [26]: 0.5 | fractional inhibitory concentration index (FICI) [27]: 0.625 | MIC [28]: 0.0625 µg/mL | MIC [29]: 0.031 µg/mL (≈ 0.0187 µM) | MIC [30]: 0.25 µg/mL | MIC [31]: 0.125 µg/mL | MIC [32]: 8 µg/mL | MIC [33]: 2 µg/mL | MIC [34]: 4 µg/mL | MIC [35]: 8 µg/mL | MIC [36]: 0.125 µg/mL | MIC [37]: 16 µg/mL | MIC [38]: 2 µg/mL | MIC [39]: 2 µg/mL | MIC [40]: 16 µg/mL | MIC [41]: 16 µg/mL
